# Laboratory results: PubChem BioAssay AID1963433 (Molecular Pharmacology Branch, DTP, NCI, 2024)
# pIC50: −log10 of the molar value.
# Tested on: 772245-204-R-J1-PDC complex spheroid growth
# Experiment: Anticancer human tumor 772245-204-R-J1-PDC patient-derived rhabdomyosarcoma cell line growth inhibition [Asc]
# Details: for pIC50: curve of first compound; for viability, T/C: stronger effect = lower value
# Summary of the method: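 Spheroid model: tumor line + HUVEC + hMSC. Single agents and combinations; top conc. at/near clinical Cmax (10 microM if undetermined), half-log dilutions. DMSO stocks at 800-fold test concentration.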
# [1] = second compound 0.01 µM, first compound 0.00316 µM
# [2] = second compound 0.01 µM, first compound 0.01 µM
# [3] = second compound 0.01 µM, first compound 0.0316 µM
# [4] = second compound 0.01 µM, first compound 0.1 µM
# [5] = second compound 0.01 µM, first compound 0.316 µM
# [6] = second compound 0.01 µM, first compound 1 µM
# [7] = second compound 0.0316 µM, first compound 0.00316 µM
# [8] = second compound 0.0316 µM, first compound 0.01 µM
# [9] = second compound 0.0316 µM, first compound 0.0316 µM
# [10] = second compound 0.0316 µM, first compound 0.1 µM
# [11] = second compound 0.0316 µM, first compound 0.316 µM
# [12] = second compound 0.0316 µM, first compound 1 µM
# [13] = second compound 0.1 µM, first compound 0.00316 µM
# [14] = second compound 0.1 µM, first compound 0.01 µM
# [15] = second compound 0.1 µM, first compound 0.0316 µM
# [16] = second compound 0.1 µM, first compound 0.1 µM
# [17] = second compound 0.1 µM, first compound 0.316 µM
# [18] = second compound 0.1 µM, first compound 1 µM
# [19] = second compound 0.316 µM, first compound 0.00316 µM
# [20] = second compound 0.316 µM, first compound 0.01 µM
# [21] = second compound 0.316 µM, first compound 0.0316 µM
# [22] = second compound 0.316 µM, first compound 0.1 µM
# [23] = second compound 0.316 µM, first compound 0.316 µM
# [24] = second compound 0.316 µM, first compound 1 µM
# [25] = second compound 1 µM, first compound 0.00316 µM
# [26] = second compound 1 µM, first compound 0.01 µM
# [27] = second compound 1 µM, first compound 0.0316 µM
# [28] = second compound 1 µM, first compound 0.1 µM
# [29] = second compound 1 µM, first compound 0.316 µM
# [30] = second compound 1 µM, first compound 1 µM
# 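Also: compound exposure lasted seven days.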
# 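For viability, T/C in this document: 100% = DMSO vehicle control viability.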
Structure (SMILES),pIC50 (second compound 0.01 µM),pIC50 (second compound 0.0316 µM),pIC50 (second compound 0.1 µM),pIC50 (second compound 0.316 µM),pIC50 (second compound 1 µM),"viability, T/C [1] [%]","viability, T/C [2] [%]","viability, T/C [3] [%]","viability, T/C [4] [%]","viability, T/C [5] [%]","viability, T/C [6] [%]","viability, T/C [7] [%]","viability, T/C [9] [%]","viability, T/C [10] [%]","viability, T/C [15] [%]","viability, T/C [16] [%]","viability, T/C [21] [%]","viability, T/C [22] [%]","viability, T/C [27] [%]","viability, T/C [28] [%]",other results
CCN1CCN(Cc2ccc(Nc3ncc(F)c(-c4cc(F)c5nc(C)n(C(C)C)c5c4)n3)nc2)CC1 + CNC(C)C(=O)NC1CN(S(=O)(=O)c2cccc(S(=O)(=O)N3CCC4CCC(C(=O)NC(c5ccccc5)c5ccccc5)N4C(=O)C(NC(=O)C(C)NC)C3)c2)CCC2CCC(C(=O)NC(c3ccccc3)c3ccccc3)N2C1=O,< 6.00,< 6.00,< 6.00,< 6.00,< 6.00,104,94.3,90.8,99.8,106,108,85.3,96,94,85.8,104,96.1,89.4,102,98.8,"viability, T/C [8]: 95.3%; viability, T/C [11]: 102%; viability, T/C [12]: 103%; viability, T/C [13]: 82.3%; viability, T/C [14]: 89.9%; viability, T/C [17]: 104%; viability, T/C [18]: 115%; viability, T/C [19]: 103%; viability, T/C [20]: 94.1%; viability, T/C [23]: 92.8%; viability, T/C [24]: 104%; viability, T/C [25]: 87.8%; viability, T/C [26]: 94.3%; viability, T/C [29]: 105%; viability, T/C [30]: 104%"
Cn1ncnc1[C@H]1c2n[nH]c(=O)c3cc(F)cc(c23)N[C@@H]1c1ccc(F)cc1 + CNC(C)C(=O)NC1CN(S(=O)(=O)c2cccc(S(=O)(=O)N3CCC4CCC(C(=O)NC(c5ccccc5)c5ccccc5)N4C(=O)C(NC(=O)C(C)NC)C3)c2)CCC2CCC(C(=O)NC(c3ccccc3)c3ccccc3)N2C1=O,< 7.00,< 7.00,< 7.00,< 7.00,< 7.00,91.7,90,91,76.1,–,–,99.7,85,94.2,81.7,79.4,89.2,94.4,84.2,85.6,"viability, T/C (second compound 0.01 µM, first compound 0.000316 µM): 85.5%; viability, T/C (second compound 0.01 µM, first compound 0.001 µM): 83.7%; viability, T/C (second compound 0.0316 µM, first compound 0.000316 µM): 98.9%; viability, T/C (second compound 0.0316 µM, first compound 0.001 µM): 94.9%; viability, T/C [8]: 97.1%; viability, T/C (second compound 0.1 µM, first compound 0.000316 µM): 97%; viability, T/C (second compound 0.1 µM, first compound 0.001 µM): 96.6%; viability, T/C [13]: 85.7%; viability, T/C [14]: 102%; viability, T/C (second compound 0.316 µM, first compound 0.000316 µM): 97.3%; viability, T/C (second compound 0.316 µM, first compound 0.001 µM): 96.2%; viability, T/C [19]: 96.1%; viability, T/C [20]: 82.2%; viability, T/C (second compound 1 µM, first compound 0.000316 µM): 112%; viability, T/C (second compound 1 µM, first compound 0.001 µM): 88.4%; viability, T/C [25]: 97.8%; viability, T/C [26]: 85.3%"
O=C(c1cc(Cc2n[nH]c(=O)c3ccccc23)ccc1F)N1CCN(C(=O)C2CC2)CC1 + CNC(C)C(=O)NC1CN(S(=O)(=O)c2cccc(S(=O)(=O)N3CCC4CCC(C(=O)NC(c5ccccc5)c5ccccc5)N4C(=O)C(NC(=O)C(C)NC)C3)c2)CCC2CCC(C(=O)NC(c3ccccc3)c3ccccc3)N2C1=O,< 5.00,< 5.00,< 5.00,< 5.00,< 5.00,–,–,93.6,99.7,99,98.5,–,106,104,103,99.2,102,106,106,94.1,"viability, T/C (second compound 0.01 µM, first compound 3.16 µM): 80.5%; viability, T/C (second compound 0.01 µM, first compound 10 µM): 81.1%; viability, T/C [11]: 88.6%; viability, T/C [12]: 113%; viability, T/C (second compound 0.0316 µM, first compound 3.16 µM): 96.1%; viability, T/C (second compound 0.0316 µM, first compound 10 µM): 97.7%; viability, T/C [17]: 98%; viability, T/C [18]: 86.7%; viability, T/C (second compound 0.1 µM, first compound 3.16 µM): 78.3%; viability, T/C (second compound 0.1 µM, first compound 10 µM): 76.5%; viability, T/C [23]: 106%; viability, T/C [24]: 94.5%; viability, T/C (second compound 0.316 µM, first compound 3.16 µM): 81.2%; viability, T/C (second compound 0.316 µM, first compound 10 µM): 78%; viability, T/C [29]: 103%; viability, T/C [30]: 97.2%; viability, T/C (second compound 1 µM, first compound 3.16 µM): 82.6%; viability, T/C (second compound 1 µM, first compound 10 µM): 94.8%"
O=C(c1ccc(F)c(F)c1Nc1ccc(I)cc1F)N1CC(O)([C@@H]2CCCCN2)C1 + CNC(C)C(=O)NC1CN(S(=O)(=O)c2cccc(S(=O)(=O)N3CCC4CCC(C(=O)NC(c5ccccc5)c5ccccc5)N4C(=O)C(NC(=O)C(C)NC)C3)c2)CCC2CCC(C(=O)NC(c3ccccc3)c3ccccc3)N2C1=O,< 6.00,< 6.00,< 6.00,< 6.00,< 6.00,93.1,85.4,93.3,84.8,97.9,105,98.3,95.2,93.2,90.1,87.6,96.8,99.8,88.8,92,"viability, T/C [8]: 90.7%; viability, T/C [11]: 101%; viability, T/C [12]: 95.4%; viability, T/C [13]: 93.3%; viability, T/C [14]: 84.8%; viability, T/C [17]: 103%; viability, T/C [18]: 77.9%; viability, T/C [19]: 91.7%; viability, T/C [20]: 88.1%; viability, T/C [23]: 103%; viability, T/C [24]: 112%; viability, T/C [25]: 100%; viability, T/C [26]: 89.7%; viability, T/C [29]: 94.5%; viability, T/C [30]: 97.6%"
